Assay results: patent US10770169B2, “Method of providing a treatment to a subject based on a dynamic pathway map” (THE REGENTS OF THE UNIVERSITY OF CALIFORNIA, priority 2010, dated 2020)

Test system: panel of 55 breast cancer cell lines
Test: Cell growth inhibition assay (Cell Titer Glo, 72 h, 9 doses; GI50, TGI, LC50)
Assay type: cell-based, human
Details: for GI50: value is the negative log10 of mol/L

O=S(=O)(CC1CS1)c1ccc(Oc2ccccc2)cc1 (centres unmarked) [SB-3CT]
GI50 (BT20 cell line, censored GI50 values): 4.42 | GI50 (BT474 cell line, censored GI50 values): 4.99 | GI50 (BT483 cell line, censored GI50 values): 4.59 | GI50 (HCC38 cell line, censored GI50 values): 4.62 | GI50 (HCC1187 cell line, censored GI50 values): 4.83 | GI50 (HCC2185 cell line, censored GI50 values): 4.21 | GI50 (MDAMB361 cell line, censored GI50 values): 4.00 | GI50 (MDAMB415 cell line, censored GI50 values): 4.00 | GI50 (SUM52PE cell line, censored GI50 values): 4.22 | GI50 (SUM149PT cell line, censored GI50 values): 4.53 | GI50 (SUM159PT cell line, censored GI50 values): 4.85 | GI50 (SUM185PE cell line, censored GI50 values): 4.76 | GI50 (UACC812 cell line, censored GI50 values): 4.28 | GI50 (ZR75B cell line, censored GI50 values): 4.62 | GI50 (ZR751 cell line, censored GI50 values): 4.00 | GI50 (cell line AU565): 4.00 | GI50 (cell line BT20): 4.42 | GI50 (cell line BT474): 4.99 | GI50 (cell line BT483): 4.59 | GI50 (cell line CAMA1): 4.00 | GI50 (cell line HCC38): 4.62 | GI50 (cell line HCC70): 3.88 | GI50 (cell line HCC1143): 4.00 | GI50 (cell line HCC1187): 4.83 | GI50 (cell line HCC1395): 3.78 | GI50 (cell line HCC1419): 3.78 | GI50 (cell line HCC1428): 4.18 | GI50 (cell line HCC1500): 3.78 | GI50 (cell line HCC1806): 4.00 | GI50 (cell line HCC1937): 4.00 | GI50 (cell line HCC1954): 4.00 | GI50 (cell line HCC2185): 4.21 | GI50 (cell line HCC3153): 4.00 | GI50 (cell line MCF7): 4.00

O=c1cc(-c2ccccc2)oc2cc(O)c(O)c(O)c12 [baicalein]
variability in cell line response (across the cell line panel): variability in cell line response was minimal
